Values quoted from earlier work in patent US20100228037A1, “Process for Preparing Allylmercaptocaptopril (Cpssa) and Related Asymmetrical Disulfides” (Yeda Research And Development Co. Ltd. at the Weizmann …, priority 2006, published 2010).
Where two headings read alike, the source gives them in different places. Values belong to the compound of their own block, whether it stands above or below them.

How the values were obtained:
[1] = blood or plasma of mammals
[2] = in vitro, human blood
[3] = in vivo, rats
[4] = rats, immediately after administration

stability in blood or plasma [1]: stable in blood or plasma of mammals
SMILES: C=CCSSC[C@H](C)C(=O)N1CCC[C@H]1C(=O)O [CPSSA, allylmercaptocaptopril]
antihypertensive properties compared with unmodified captopril (rats; rat, in vivo): improved antihypertensive properties | blood pressure (rats; [4]): significantly decreased blood pressure | serum level of insulin (rats; [4]): to near normal levels | serum level of triglycerides (rats; [4]): to near normal levels

SMILES: C=CCS[S+]([O-])CC=C (stereo not shown) [allicin]
disintegration in blood after administration [2]: disintegrates in the blood a few minutes post its administration | disintegration in blood after administration [3]: disintegrates in the blood a few minutes post its administration
